What all share (format): cell-based
The subject of one assay is EVSA-T. Nature of the assay: In vitro anti-tumour cell growth inhibition (method of Skehan et al.), EVSA-T. The note with it: breast cancer, amount which inhibits 50% of the cell growth. The procedure: (§1) Compounds 1, 2 and 3 were tested in vitro. together with 2 reference compounds used clinically (carboplatin and cisplatin), against MCF-7 and EVSA-T, two breast cancers, WiDr, a colon cancer, IGROV, an ovarian cancer, M19MEL, a melanoma, A498, a renal cancer, and H226, a non small cell lung cancer. The tests were carried out according to the method of Skehan et al, Journal of the National Cancer Institute, 1990; 82: 1107-1112.

For the next assay, the system named is MCF-7. Description: In vitro anti-tumour cell growth inhibition (method of Skehan et al.), MCF-7. The note with it: MCF-7, breast cancer; amount which inhibits 50% of the cell growth. The method, then:
as §1

The next assay has as its system IGROV. Nature of the assay: In vitro anti-tumour cell growth inhibition (method of Skehan et al.), IGROV. The conditions noted are these: ovarian cancer, amount which inhibits 50% of the cell growth. The procedure: as §1
Another assay relates to M19MEL. Nature of the assay: In vitro anti-tumour cell growth inhibition (method of Skehan et al.), M19MEL. The conditions noted are these: melanoma, amount which inhibits 50% of the cell growth. The method, then: as §1
Another assay deals with WiDr. Description: In vitro anti-tumour cell growth inhibition (method of Skehan et al.), WiDr. The conditions noted are these: colon cancer, amount which inhibits 50% of the cell growth. The method, then: as §1
In a further assay the test system is A498. Nature of the assay: In vitro anti-tumour cell growth inhibition (method of Skehan et al.), A498. The note with it: A498, renal cancer; amount which inhibits 50% of the cell growth. The procedure:
as §1

Another assay concerns H226. Description: In vitro anti-tumour cell growth inhibition (method of Skehan et al.), H226. The conditions noted are these: H226, non small cell lung cancer; amount which inhibits 50% of the cell growth. The method, then:
as §1

Some results are limits rather than exact numbers.

With `CC1(C)OC(=O)CC1C(=O)[O-].CC1(C)OC(=O)CC1C(=O)[O-].CCC[CH2][Sn+2][CH2]CCC` (centres unmarked) [Compound 1, Di-n-butyltin diterebate], the ID50 in the assay with EVSA-T amounted to 25 ng/mL; in the assay with MCF-7, 27 ng/mL; in the assay on IGROV, 18 ng/mL; in the assay on M19MEL it was 61 ng/mL; with WiDr, 134 ng/mL; in the assay on A498 it was 61 ng/mL. In the assay on H226, this compound showed an ID50 of 104 ng/mL.
In the case of `CC1(C)OC(=O)CC1C(=O)[O-].c1cc[c]([Sn+]([c]2ccccc2)[c]2ccccc2)cc1` [Compound 3, triphenyltin terebate], the ID50 with EVSA-T was less than 3 ng/mL; in the assay with MCF-7, 17 ng/mL; with IGROV it was 19 ng/mL; in the assay on M19MEL, 42 ng/mL; in the assay on WiDr it was 17 ng/mL; in the assay with A498 it was 42 ng/mL. The compound also displayed an ID50 in the assay with H226 of 39 ng/mL.
For `CC1(C)OC(=O)CC1C(=O)[O-].CCC[CH2][Sn+]([CH2]CCC)[CH2]CCC` [Compound 2, tri-n-butyltin terebate], the ID50 in the assay with EVSA-T was less than 3 ng/mL; in the assay with MCF-7, 3 ng/mL; with IGROV, 4 ng/mL; in the assay with M19MEL, 11 ng/mL; in the assay on WiDr, 11 ng/mL; with A498, 15 ng/mL. In the assay with H226, the ID50 turned out to be 8 ng/mL.
With `N.N.O=C([O-])C1(C(=O)[O-])CCC1.[Pt+2]` [Carboplatin, carboplatin, reference compound], the ID50 was found to be 4500 ng/mL in the assay on EVSA-T; 10500 ng/mL in the assay with MCF-7; 2400 ng/mL with IGROV; 5500 ng/mL in the assay with M19MEL; 3500 ng/mL in the assay on WiDr; 18000 ng/mL in the assay on A498. The compound further displayed an ID50 in the assay on H226 of 25000 ng/mL.
`N.N.[Cl][Pt][Cl]` [Cisplatin, cisplatin, reference compound]: the ID50 stood at 920 ng/mL with EVSA-T; 1400 ng/mL in the assay with MCF-7; 230 ng/mL in the assay with IGROV; 780 ng/mL in the assay with M19MEL; 1550 ng/mL with WiDr; 1200 ng/mL with A498. The compound also had an ID50 in the assay on H226 of 3158 ng/mL.

Values taken from EP0848008A1, “Organotin compounds and compositions containing these compounds” (PHARMACHEMIE B.V., priority 1996, dated 1998).
